Converted amounts (≈) assume the structure as drawn. Where two headings read alike, the source gives them in different places.
Experiments:
[1] = system: C. albicans CaCi-2; test: Secondary single-agent (no-fluconazole) activity assay; assay type: cell-based, Candida albicans; conditions: read-out: Target Potency (μM) Mean ± S.E.M CaCi-2^b IC50
Method in brief: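 C. albicans CaCi-2 in RPMI synthetic defined medium with 1% Pen/Strep, starting OD600 0.00015, exposed to compound alone (no fluconazole) for 48 h at 37 °C without agitation. Growth read as Alamar Blue fluorescence (1:200 final) after 2 h at room temperature.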

[2] = system: C. albicans CaCi-8; test: microbe, parasite or virus in culture; assay type: cell-based, Candida albicans
Method in brief: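 Hits tested for chemosensitization of the fluconazole-resistant CaCi-8 strain, for inherent antifungal activity without fluconazole, and for mammalian fibroblast toxicity by fluorescence reporter. Geldanamycin plus fluconazole served as positive control; a Saccharomyces assay assigned mechanism to Hsp90, calcineurin or other pathways.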

[3] = system: NIH-3T3 mammalian fibroblasts; test: Counterscreen mammalian cell toxicity assay (fibroblast toxicity); assay type: cell-based, murine; conditions: for IC50: footnote: in the absence of fluconazole, read-out: Anti-target Potency (μM) Mean ± S.E.M Fibroblasts^b IC50; for ** CaCi-2 to anti-target fold selectivity: fibroblast IC50 over CaCi-2 IC50 with fluconazole
[4] = PBS solubility; conditions: for solubility: aqueous buffer
[5] = Plasma stability; conditions: % remaining in human plasma after a 5-hour incubation
[6] = Plasma protein binding; conditions: for fraction unbound: human, plasma; for Plasma Protein Binding: % bound in human plasma
[7] = system: C. albicans CaCi-2; test: CaCi-2 growth inhibition in the presence of 8 μg/ml fluconazole (Alamar Blue); assay type: cell-based, Candida albicans; conditions: in the presence of fluconazole; read-out: Target Potency (μM) Mean ± S.E.M CaCi-2^a IC50
Protocol: Fluconazole was obtained from Sequoia Research Products, Ltd. and prepared in a 2 mg/ml stock solution in phosphate buffered saline (PBS). […] PBS (Catalog No. 21-040-CV) without calcium and magnesium was obtained from Cellgro. Penicillin/Streptomycin (Pen/Strep) was obtained from Gibco and prepared 100× in PBS.
RPMI medium (1×) was prepared by dissolving 10.4 g powdered medium in 800 ml water. A buffer of 34.52 g MOPS was added. While stirring, pH was adjusted to 7.0 with 10 N NaOH. Next, 10 ml uridine solution and 50 ml glucose solution were added. The final volume was adjusted to 1000 ml, and filter sterilized.
The following yeast strains were used in this study: C. albicans CaCi-2. Fungal inoculum was prepared as follows: 500 μl of strain was inoculated from cryopreserved stock into a 250-ml shaker flask containing 30 ml growth medium and shaken overnight at 30° C. The optical density (OD 600) of 1 ml fungal culture in a cuvette was read using a standard optical density reader (Eppendorf BioPhotometer Plus), with growth medium as a background blank. The desired volume of fungal inoculums was diluted to desired volume of fungal inoculums according to the following formula: (1/OD measured)×(Desired Final Volume of Inoculum)×0.3=Volume of fungal culture (μl) to add to desired volume of growth medium. When added to media in wells, this yields a calculated starting OD of the fungal inoculum of 0.00015.
Fluconazole stock solution was added to the fungal inoculum to achieve 8 μg/ml. Pen/Strep was added to the media to a 1% concentration (v/v). A Thermo Combi nL was used to dispense 20 μl/well of assay media into all wells. Geldanamycin was dispensed in positive control wells using Thermo Combi nL for a final concentration of 3 μM. Then, 100 nl of test compound was pinned from compound plates into assay plates using a CyBi-Well pin tool. A further 20 μl/well of culture was dispensed into the assay media in all wells. The plates were incubated in a humidified (90% humidity) Liconic incubator at 37° C. without agitation for 48 hours. Alamar Blue was diluted 1:40 in Ca/Mg-free PBS. To all plates, […] of the diluted Alamar Blue was added to the plates to a final dilution factor of 1:200. The plates were incubated for an additional 2 hours. Then, Relative Fluorescence Intensity (RFU) of each well was read on standard plate reader as a measure of relative fungal growth.

[8] = biological target: T1, yeast (Saccharomyces cerevisiae, UniProt P00163); test: IC50 values and selectivity of Table 10A (target yeast, anti-target human cytochrome); assay type: biochemical
T1 construct: Mitochondrial membranes were prepared from yeast; endogenous in cells; host or cells: yeast (mitochondrial membranes)
Protocol: All measurements were performed in triplicate.

[9] = Candida albicans, CACI2, in the absence of fluconazole
[10] = read-out: Target Potency (μM) Mean ± S.E.M CaCi-8^a IC50; in the presence of fluconazole
[11] = in the presence of fluconazole; read-out: Target Potency (μM) Mean ± S.E.M CaCi-8^a IC50

SMILES	IC50 [1, 9] [µM]	IC50 [2, 10] [µM]	IC50 ([3]; Mus musculus, NIH3T3) [µM]	solubility ([4]; PBS) [µM]	Plasma Stability [5]	fraction unbound [6]	IC50 ([1]; in the absence of fluconazole) [µM]	IC50 [2, 11] [µM]	PBS Solubility ([4]; PBS)	Plasma Protein Binding [6] [%]	also measured
O=C(O)c1nn(Cc2ccc(Cl)cc2)c2ccccc12 [Compound 100493]	> 26	> 26	> 6	516 (≈ 148 µg/mL)	> 99%	< 0.01	–	–	–	–	–
COC(=O)Cn1c(-c2ccccc2)nc2ccccc21 [Compound 4131200]	> 26	> 26	> 6	438 (≈ 117 µg/mL)	46%	0.05	–	–	–	–	–
COc1ccc(-c2n[nH]c3ccccc23)cc1 [Compound 9855970]	> 26	> 26	> 6	< 1	89%	0.02	–	–	–	–	–
CCOC(=O)c1nn(Cc2ccc(Cl)cc2)c2ccccc12 [Compound 12312246]	> 26	> 26	> 6	–	93%	< 0.01	–	–	–	–	solubility [4]: < 0.1 µM
CNC(=O)Cn1nc(-c2ccccc2)c2ccccc21 [Compound 13330955]	–	–	–	–	> 99%	–	> 26	> 26	< 18.5 µM	93	–
O=C(O)c1c2ccccc2nn1Cc1ccc(Cl)cc1 [Compound 14420592]	> 26	> 26	> 6	503 (≈ 144 µg/mL)	96%	< 0.01	–	–	–	–	–
CCCNC(=O)Cn1nc(-c2ccccc2)c2cc(Cl)ccc21 [Compound 20877322]	> 26	> 26	> 6	< 1	97%	< 0.01	–	–	–	–	–
O=C(Cn1nc(-c2ccccc2)c2cc(Cl)ccc21)N1CCOCC1 [Compound 20877381]	> 26	> 26	> 6	8 (≈ 2.85 µg/mL)	99%	0.04	–	–	–	–	–
O=C(Cn1nc(-c2ccccc2)c2ccccc21)N1CCc2ccccc2C1 [Compound 20877557]	–	–	–	–	97%	–	> 26	> 26	< 1.0 µM	> 99	–
COC(=O)[C@@H](C)n1nc(-c2ccccc2)c2ccccc21.COC(=O)[C@H](C)n1nc(-c2ccccc2)c2ccccc21 [Compound 49835813]	–	–	–	–	61%	–	> 26	15.8	< 1.0 µM	> 99	IC50 [7]: 6.56 ± 0.79 µM
CCC(=O)Cn1nc(-c2ccccc2)c2ccccc21 [Compound 49835816]	–	–	–	–	98%	–	–	> 26	< 1.0 µM	99	IC50 [1]: > 26 µM
COC(=O)Cn1nc(I)c2ccccc21 [Compound 49835832]	–	–	–	–	1.3%	–	–	18.8	143.5 µM	98	IC50 [3]: 0.53 µM
O=C1OCCC1n1nc(-c2ccccc2)c2ccccc21 (stereo not shown) [Compound 49835834]	–	–	–	–	PBS Solubility: <1.0 μM Plasma Protein Binding: ND Plasma Stability: <1.0% Purity (UPLC): 65%	–	> 26	> 26	PBS Solubility: <1.0 μM Plasma Protein Binding: ND Plasma Stability: <1.0% Purity (UPLC): 65%	–	–
COC(=O)CCn1nc(-c2ccccc2)c2ccccc21 [Compound 49835835]	–	–	–	–	74%	–	> 26	> 26	< 1.0 µM	> 99	–
COC(=O)Cn1nc(-c2ccccc2OC)c2ccccc21 [Compound 49835850]	–	–	–	–	< 1.0%	–	> 26	10.2	–	92	IC50 [7]: 6.21 µM; ** CaCi-2 to anti-target fold selectivity [3]: 0.17; IC50 [3]: 1.54 µM
COC(=O)Cn1nc(-c2cncnc2)c2ccccc21 [Compound 49835858]	> 26	–	> 6	155 (≈ 41.5 µg/mL)	< 1.0%	–	–	–	–	–	–
COC(=O)Cn1nc(-c2ccccc2)c2ccc(C)cc21 [Compound 49835872]	–	–	–	–	6.5%	–	> 26	9.62	–	98	IC50 [7]: 3.14 µM; ** CaCi-2 to anti-target fold selectivity [3]: 10; IC50 [3]: 31.6 µM
COC(=O)Cn1nc(-c2ccccc2)c2cc(C)ccc21 [Compound 49835874]	–	–	–	–	< 1.0%	–	> 26	5.33	–	95	IC50 [7]: 3.28 µM; ** CaCi-2 to anti-target fold selectivity [3]: 21; IC50 [3]: 69.5 µM
COC(=O)Cn1nc(-c2cccc(OC)c2)c2ccccc21 [Compound 49835877]	–	–	–	–	2.6%	–	> 26	1.21	–	95	IC50 [7]: 0.44 µM; IC50 [3]: > 26 µM
CN(C)C(=O)Cn1nc(-c2ccccc2)c2ccccc21 [Compound 49835882]	–	–	–	–	98%	–	–	> 26	325.5 µM	98	IC50 [1]: > 26 µM
COC(=O)Cn1nc(-c2cccc(F)c2)c2ccccc21 [Compound I-71]	> 26	–	12.9	< 1	< 1.0%	0.04	–	–	–	–	** CaCi-2 to anti-target fold selectivity [3]: 9.1; IC50 ([8]; target is yeast): 0.25 µM; Selectivity* (anti-target IC50)/(target IC50) ([8]; target yeast, anti-target human cytochrome): 80
